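How tested: cells in 96-well plates exposed to compound for 48 hours at five concentrations. At the TGI there is no net growth.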
Key:
Test in all cases: NCI-60 cell line screen, 48 h
[1] = test system: UO-31 renal
[2] = test system: SNB-75 CNS
[3] = test system: M14 melanoma
[4] = test system: RPMI-8226 leukemia
[5] = test system: HCT-15 colon
[6] = test system: COLO 205 colon
[7] = test system: NCI-H23 lung
[8] = test system: SNB-19 CNS
[9] = test system: DMS 114 small cell lung
[10] = test system: CAKI-1 renal
[11] = test system: SNB-78 CNS
[12] = test system: SN12C renal
[13] = test system: K-562 leukemia
[14] = test system: A549 NSCLC
[15] = test system: DLD-1 colon
[16] = test system: EKVX NSCLC
[17] = test system: HCC-2998 colon
[18] = test system: SK-MEL-5 melanoma
[19] = test system: LOX IMVI melanoma
[20] = test system: SW-620 colon
[21] = test system: 786-0 renal
[22] = test system: HCT-116 colon
[23] = test system: OVCAR-5 ovarian
[24] = test system: SK-OV-3 ovarian
[25] = test system: NCI-H460 lung
[26] = test system: SK-MEL-2 melanoma
[27] = test system: OVCAR-4 ovarian
[28] = test system: DMS 273 small cell lung
[29] = test system: XF 498 CNS
[30] = test system: RXF 393 renal
[31] = test system: KM20L2 colon
[32] = test system: HL-60(TB) leukemia
[33] = test system: SR leukemia
[34] = test system: SF-295 CNS
[35] = test system: U251 CNS
[36] = test system: SF-539 CNS
[37] = test system: SF-268 CNS
[38] = test system: SK-MEL-28 melanoma
[39] = test system: OVCAR-3 ovarian
[40] = test system: OVCAR-8 ovarian
[41] = test system: UACC-257 melanoma
[42] = test system: TK-10 renal
[43] = test system: IGROV1 ovarian
[44] = test system: M19-MEL melanoma
[45] = test system: MOLT-4 leukemia
[46] = test system: A498 renal
[47] = test system: MALME-3M melanoma
[48] = test system: HT29 colon
[49] = test system: ACHN renal
[50] = test system: HOP-62 NSCLC
[51] = test system: CCRF-CEM leukemia
[52] = test system: KM12 colon
[53] = test system: NCI-H522 lung
[54] = test system: NCI-H226 lung
[55] = test system: UACC-62 melanoma
[56] = test system: LXFL 529 NSCLC
[57] = test system: HOP-92 NSCLC
[58] = test system: HOP-18 NSCLC

N#Cc1c2c(c(Cl)n3c1nc1ccccc13)CCCC2
TGI [1]: 12.8 µM
TGI [2]: 30.9 µM
TGI [3]: 11.3 µM
TGI [4]: 7.52 µM
TGI [5]: 10.6 µM
TGI [6]: 17.7 µM
TGI [7]: 17 µM
TGI [8]: 14.7 µM
TGI [9]: 5.12 µM
TGI [10]: 11.8 µM
TGI [11]: 15.9 µM
TGI [12]: 4.74 µM
TGI [13]: 7.15 µM
TGI [14]: 17.2 µM
TGI [15]: 24.2 µM
TGI [16]: 32.1 µM
TGI [17]: 30.8 µM
TGI [18]: 3.26 µM
TGI [19]: 4.57 µM
TGI [20]: 4.43 µM
TGI [21]: 3.33 µM
TGI [22]: 5.43 µM
TGI [23]: 32.4 µM
TGI [24]: 10.2 µM
TGI [25]: 4.02 µM
TGI [26]: 8.34 µM
TGI [27]: 16.7 µM
TGI [28]: 3.74 µM
TGI [29]: 5.29 µM
TGI [30]: 0.904 µM
TGI [31]: 7.48 µM
TGI [32]: 5.25 µM
TGI [33]: > 100 µM
TGI [34]: 16.6 µM
TGI [35]: 11.8 µM
TGI [36]: 14 µM
TGI [37]: 8.83 µM
TGI [38]: 4.43 µM
TGI [39]: 20.1 µM
TGI [40]: 5.89 µM
TGI [41]: 3.91 µM
TGI [42]: 6.68 µM
TGI [43]: 8.28 µM
TGI [44]: 12.2 µM
TGI [45]: 24.8 µM
TGI [46]: 23.8 µM
TGI [47]: 27 µM
TGI [48]: 2.86 µM
TGI [49]: 12.4 µM

CCOP(=S)(OCC)Oc1ccc2c(c1)OC(=O)C1(Cl)C2(C)C2(Cl)C(=O)Oc3cc(OP(=S)(OCC)OCC)ccc3C12C (stereo not drawn)
TGI [1]: 33.7 µM
TGI [2]: 34.3 µM
TGI [50]: 40.3 µM
TGI [3]: 33.7 µM
TGI [51]: 41.1 µM
TGI [52]: 30.7 µM
TGI [4]: 52.8 µM
TGI [5]: 41.6 µM
TGI [6]: 34.3 µM
TGI [53]: 22.3 µM
TGI [8]: 15.6 µM
TGI [9]: 30 µM
TGI [10]: 41.8 µM
TGI [11]: 49.4 µM
TGI [12]: 39.3 µM
TGI [13]: 77.3 µM
TGI [14]: 74.1 µM
TGI [15]: 33.3 µM
TGI [16]: 55.5 µM
TGI [17]: 33.9 µM
TGI [18]: 31.7 µM
TGI [19]: 37.5 µM
TGI [20]: 33.3 µM
TGI [21]: 44.9 µM
TGI [22]: 25 µM
TGI [23]: 33.3 µM
TGI [25]: 36.6 µM
TGI [26]: 42.3 µM
TGI [27]: 24.4 µM
TGI [28]: 38.1 µM
TGI [29]: 36.2 µM
TGI [30]: 25.8 µM
TGI [31]: 33.4 µM
TGI [32]: 34.4 µM
TGI [34]: 29.7 µM
TGI [35]: 20 µM
TGI [36]: 24.7 µM
TGI [37]: 21 µM
TGI [38]: 31.1 µM
TGI [39]: 28.1 µM
TGI [40]: 37.2 µM
TGI [41]: 37.2 µM
TGI [42]: 61.8 µM
TGI [54]: 31.1 µM
TGI [43]: 38.7 µM
TGI [44]: 33.9 µM
TGI [45]: 66.6 µM
TGI [55]: 26.6 µM
TGI [56]: 21.1 µM
TGI [46]: 63.7 µM
TGI [47]: 43.8 µM
TGI [48]: 29.9 µM
TGI [49]: 43.4 µM

CCCCC1CC(c2ccc(Cl)cc2)=NO1 (stereo not drawn)
TGI [1]: > 100 µM
TGI [2]: > 100 µM
TGI [50]: > 100 µM
TGI [3]: > 100 µM
TGI [51]: > 100 µM
TGI [52]: > 100 µM
TGI [4]: > 100 µM
TGI [5]: > 100 µM
TGI [6]: > 100 µM
TGI [7]: > 100 µM
TGI [53]: > 100 µM
TGI [8]: > 100 µM
TGI [9]: > 100 µM
TGI [10]: > 100 µM
TGI [11]: > 100 µM
TGI [57]: > 100 µM
TGI [58]: > 100 µM
TGI [12]: > 100 µM
TGI [13]: > 100 µM
TGI [14]: > 100 µM
TGI [15]: > 100 µM
TGI [16]: > 100 µM
TGI [17]: > 100 µM
TGI [18]: > 100 µM
TGI [20]: > 100 µM
TGI [21]: > 100 µM
TGI [22]: > 100 µM
TGI [23]: > 100 µM
TGI [24]: > 100 µM
TGI [25]: > 100 µM
TGI [26]: > 100 µM
TGI [27]: > 100 µM
TGI [28]: > 100 µM
TGI [32]: > 100 µM
TGI [33]: > 100 µM
TGI [34]: > 100 µM
TGI [35]: > 100 µM
TGI [36]: > 100 µM
TGI [37]: > 100 µM
TGI [38]: > 100 µM
TGI [39]: > 100 µM
TGI [40]: > 100 µM
TGI [41]: > 100 µM
TGI [42]: > 100 µM
TGI [54]: > 100 µM
TGI [43]: > 100 µM
TGI [44]: > 100 µM
TGI [45]: > 100 µM
TGI [55]: > 100 µM
TGI [56]: > 100 µM
TGI [46]: > 100 µM
TGI [47]: > 100 µM
TGI [48]: > 100 µM
TGI [49]: > 100 µM

COc1ccc(/C=C/C(=O)C(C)(C)C)cc1OC
TGI [1]: > 100 µM
TGI [2]: > 100 µM
TGI [50]: > 100 µM
TGI [3]: > 100 µM
TGI [51]: > 100 µM
TGI [52]: > 100 µM
TGI [4]: > 100 µM
TGI [5]: > 100 µM
TGI [6]: > 100 µM
TGI [7]: > 100 µM
TGI [53]: > 100 µM
TGI [8]: > 100 µM
TGI [9]: > 100 µM
TGI [10]: > 100 µM
TGI [11]: > 100 µM
TGI [12]: > 100 µM
TGI [13]: > 100 µM
TGI [14]: > 100 µM
TGI [15]: > 100 µM
TGI [16]: > 100 µM
TGI [17]: > 100 µM
TGI [18]: > 100 µM
TGI [20]: > 100 µM
TGI [23]: > 100 µM
TGI [24]: > 100 µM
TGI [25]: > 100 µM
TGI [27]: > 100 µM
TGI [29]: > 100 µM
TGI [31]: > 100 µM
TGI [34]: > 100 µM
TGI [35]: > 100 µM
TGI [37]: > 100 µM
TGI [38]: > 100 µM
TGI [39]: > 100 µM
TGI [40]: > 100 µM
TGI [41]: > 100 µM
TGI [42]: > 100 µM
TGI [43]: > 100 µM
TGI [44]: > 100 µM
TGI [45]: > 100 µM
TGI [55]: > 100 µM
TGI [56]: > 100 µM
TGI [46]: > 100 µM
TGI [48]: > 100 µM
TGI [49]: > 100 µM

CCCOP1(=O)C=C(O)C(Cl)=C(C)C1 (stereo not drawn)
TGI [1]: > 100 µM
TGI [2]: > 100 µM
TGI [50]: > 100 µM
TGI [3]: > 100 µM
TGI [51]: > 100 µM
TGI [52]: > 100 µM
TGI [5]: > 100 µM
TGI [6]: > 100 µM
TGI [7]: > 100 µM
TGI [53]: > 100 µM
TGI [8]: > 100 µM
TGI [11]: > 100 µM
TGI [57]: > 100 µM
TGI [12]: > 100 µM
TGI [13]: > 100 µM
TGI [14]: > 100 µM
TGI [15]: > 100 µM
TGI [16]: > 100 µM
TGI [17]: > 100 µM
TGI [18]: > 100 µM
TGI [19]: > 100 µM
TGI [20]: > 100 µM
TGI [21]: > 100 µM
TGI [22]: > 100 µM
TGI [24]: > 100 µM
TGI [25]: > 100 µM
TGI [26]: > 100 µM
TGI [27]: > 100 µM
TGI [28]: > 100 µM
TGI [29]: > 100 µM
TGI [30]: > 100 µM
TGI [31]: > 100 µM
TGI [32]: > 100 µM
TGI [33]: > 100 µM
TGI [34]: > 100 µM
TGI [35]: > 100 µM
TGI [36]: > 100 µM
TGI [37]: > 100 µM
TGI [38]: > 100 µM
TGI [39]: > 100 µM
TGI [40]: > 100 µM
TGI [41]: > 100 µM
TGI [42]: > 100 µM
TGI [54]: > 100 µM
TGI [43]: > 100 µM
TGI [44]: > 100 µM
TGI [45]: > 100 µM
TGI [55]: > 100 µM
TGI [56]: > 100 µM
TGI [47]: > 100 µM
TGI [48]: > 100 µM
TGI [49]: > 100 µM
